This is an account of results in US20050169992A1, “Methods and dosage forms for increasing solubility of drug compositions for controlled delivery” (priority 2003, published 2005).

The conditions of data set [1]: Analytical Profiles of Drug Substances Volume 13, p 425; cited from earlier work.
Data set [2] in a line: Saturated solubility of topiramate in de-ionized water and aqueous surfactant solutions at 37° C. The data set is classed as physicochemical. The settings on record: Lutrol F127, F87, F108, F68 and Myrj 52 solutions at 1, 5, 15 weight percent, FIG. 6. As for the experimental part:
Aqueous solubility is determined by adding the therapeutic agent to stirred or agitated water maintained in a constant temperature bath at a temperature of 37 degrees centigrade until equilibrium is established between the dissolved and undissolved states and the concentration of dissolved drug is constant. The resulting solution saturated with active agent is then filtered, typically under pressure through a 0.8-micron Millipore filter, and the concentration in solution is measured by any appropriate analytical method including gravimetric, ultraviolet spectrophotometry, refractive index, refractive index chromatography, and the like.
The present invention involves a method to match the appropriate solid surfactant or blend of surfactants with a particular pharmaceutical active agent to produce the solubilizing core, or S-Core of the present invention. […] Then, pharmaceutical agent is added in excess to the surfactant solutions and the saturated solubility of the pharmaceutical active agent is then measured by an appropriate analytical method such as ultraviolet spectroscopy, chromatographic methods, or gravimetric analysis. […]
The aqueous surfactant solutions were then equilibrated to constant temperature in a 37° C. water bath. […] The resulting saturated solutions of drug were filtered through 0.8-micron filters and analyzed for drug concentration by refractive index chromatography. […]

Structures are written as SMILES.

For the compound `O=C1NC(=O)C(c2ccccc2)(c2ccccc2)N1` [phenytoin], the Solubility of phenytoin in data set [1] was 20 µg/mL.
Regarding `CC1(C)O[C@@H]2[C@@H](CO[C@@]3(COS(N)(=O)=O)OC(C)(C)O[C@@H]23)O1` [topiramate], the “Topiramate solubility in water in the presence of surfactant compared to control” value in data set [2] is “increased”.
